# “And” between values parts separate entries of the source, which are not always exact repeats. Equal values may be shown once.
# Assays:
# [1] = target: T1, MEK1 (Homo sapiens, UniProt Q02750); assay: In vitro kinase screening (Kinase HotSpot); assay type: biochemical; conditions: single dose of 10 µM
# T1 construct: purchased Reaction Biology Corp
# Text: (§1) To investigate the biological target of compound, Reaction Biology Corp. Kinase HotSpotSM service was used adopting standard assay protocol.
# [2] = target: T2, BRAF (V600E) (Homo sapiens, UniProt P15056, V600E); assay: In vitro kinase screening (Kinase HotSpot); assay type: biochemical
# T2 construct: purchased Reaction Biology Corp
# Text: as §1
# [3] = target: T3, EGFR (Homo sapiens, UniProt P00533); assay: In vitro kinase screening (Kinase HotSpot); assay type: biochemical; conditions: single dose of 10 µM
# T3 construct: purchased Reaction Biology Corp
# Text: as §1
# [4] = target: T4, RAF1 (Homo sapiens, UniProt P04049); assay: In vitro kinase screening (Kinase HotSpot); assay type: biochemical
# T4 construct: purchased Reaction Biology Corp
# Text: as §1
# [5] = target: T5, IKKb/IKBKB (Homo sapiens, UniProt O14920); assay: In vitro kinase screening (Kinase HotSpot); assay type: biochemical; conditions: single dose of 10 µM
# T5 construct: purchased Reaction Biology Corp
# T5 sequence (O14920 1-756): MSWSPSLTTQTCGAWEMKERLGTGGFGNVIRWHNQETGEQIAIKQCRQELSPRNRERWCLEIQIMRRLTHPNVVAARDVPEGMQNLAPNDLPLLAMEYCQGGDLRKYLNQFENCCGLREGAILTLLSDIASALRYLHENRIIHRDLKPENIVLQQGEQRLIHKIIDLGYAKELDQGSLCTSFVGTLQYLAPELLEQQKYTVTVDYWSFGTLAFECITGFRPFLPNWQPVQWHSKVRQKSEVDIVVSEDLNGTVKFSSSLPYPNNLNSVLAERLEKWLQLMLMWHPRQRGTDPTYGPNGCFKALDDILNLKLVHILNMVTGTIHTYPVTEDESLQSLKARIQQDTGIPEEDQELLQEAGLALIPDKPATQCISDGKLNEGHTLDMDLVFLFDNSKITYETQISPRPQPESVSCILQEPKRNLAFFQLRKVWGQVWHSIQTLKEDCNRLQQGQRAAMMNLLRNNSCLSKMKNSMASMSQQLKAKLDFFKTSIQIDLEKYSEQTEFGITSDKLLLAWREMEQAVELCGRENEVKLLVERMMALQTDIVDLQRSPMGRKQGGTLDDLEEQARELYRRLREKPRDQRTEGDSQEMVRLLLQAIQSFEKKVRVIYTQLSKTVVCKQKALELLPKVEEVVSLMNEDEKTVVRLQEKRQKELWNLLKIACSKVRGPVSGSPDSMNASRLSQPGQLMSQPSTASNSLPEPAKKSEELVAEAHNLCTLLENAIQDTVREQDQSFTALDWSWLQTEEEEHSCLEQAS
# Text: as §1
# [6] = target: T6, JNK3 (Homo sapiens, UniProt P53779); assay: In vitro kinase screening (Kinase HotSpot); assay type: biochemical; conditions: single dose of 10 µM
# T6 construct: purchased Reaction Biology Corp
# Text: as §1
# [7] = target: T7, ABL1 (T315I) (Homo sapiens, UniProt P00519, T315I); assay: In vitro kinase screening (Kinase HotSpot); assay type: biochemical; conditions: single dose of 10 µM
# T7 construct: purchased Reaction Biology Corp
# Text: as §1
# [8] = target: T8, MEK2 (Homo sapiens, UniProt P36507); assay: In vitro kinase screening (Kinase HotSpot); assay type: biochemical; conditions: single dose of 10 µM
# T8 construct: purchased Reaction Biology Corp
# Text: as §1
# [9] = target: T9, KDR/VEGFR2 (Homo sapiens, UniProt P35968); assay: In vitro kinase screening (Kinase HotSpot); assay type: biochemical; conditions: single dose of 10 µM
# T9 construct: purchased Reaction Biology Corp
# Text: as §1
# [10] = target: T10, JNK2 (Homo sapiens, UniProt P45984); assay: In vitro kinase screening (Kinase HotSpot); assay type: biochemical
# T10 construct: purchased Reaction Biology Corp
# Text: as §1
# [11] = target: T11, P38a/MAPK14 (Homo sapiens, UniProt Q16539); assay: In vitro kinase screening (Kinase HotSpot); assay type: biochemical
# T11 construct: purchased Reaction Biology Corp
# Text: as §1
# [12] = target: T12, ERK1 (Homo sapiens, UniProt P27361); assay: In vitro kinase screening (Kinase HotSpot); assay type: biochemical; conditions: single dose of 10 µM
# T12 construct: purchased Reaction Biology Corp
# Text: as §1
# [13] = target: T13, JNK1 (Homo sapiens, UniProt P45983); assay: In vitro kinase screening (Kinase HotSpot); assay type: biochemical
# T13 construct: purchased Reaction Biology Corp
# Text: as §1
# [14] = target: T14, GSK3b (Homo sapiens, UniProt P49841); assay: In vitro kinase screening (Kinase HotSpot); assay type: biochemical; conditions: single dose of 10 µM, 10 µM
# T14 construct: purchased Reaction Biology Corp
# Text: as §1
# [15] = target: T15, FMS (Homo sapiens, UniProt P07333); assay: In vitro kinase screening (Kinase HotSpot); assay type: biochemical; conditions: single dose of 10 µM
# T15 construct: purchased Reaction Biology Corp
# Text: as §1
# [16] = target: T16, CDK2/cyclin E (Homo sapiens, UniProt P24941); assay: In vitro kinase screening (Kinase HotSpot); assay type: biochemical; conditions: single dose of 10 µM
# T16 construct: purchased Reaction Biology Corp
# Text: as §1
# [17] = In vivo pharmacokinetic assay; conditions: SD rats, 10 mg/kg, mean, N = 3
# Description: Serum samples were collected each 30 min. The blood concentration of the test compounds was determined by LC-MS/MS (Agilent 1290 infinity II series equipped with on-line degasser, binary pump, thermostatted well-plate autosampler and column compartment, Waters Atlantis® HSS T3 (2.1 × 100 mm, 1.9 µm) column, and mobile phase linear gradient from 95% A (0.1% formic acid in water) /5% B (0.1% formic acid in acetonitrile) to 5% A/95% B, 6500+ QTRAP LC-MS/MS/MS system, Turbo Spray Ion Drive as ion source, and Carbamazepine as internal standard. Pharmacokinetic parameters were obtained by non-compartmental analysis of the plasma concentration–time profiles using KineticaTM 4.4.1 (Thermo Fisher Scientific, Inc., Woburn, MA, USA).
# T10 sequence (P45984 whole entry): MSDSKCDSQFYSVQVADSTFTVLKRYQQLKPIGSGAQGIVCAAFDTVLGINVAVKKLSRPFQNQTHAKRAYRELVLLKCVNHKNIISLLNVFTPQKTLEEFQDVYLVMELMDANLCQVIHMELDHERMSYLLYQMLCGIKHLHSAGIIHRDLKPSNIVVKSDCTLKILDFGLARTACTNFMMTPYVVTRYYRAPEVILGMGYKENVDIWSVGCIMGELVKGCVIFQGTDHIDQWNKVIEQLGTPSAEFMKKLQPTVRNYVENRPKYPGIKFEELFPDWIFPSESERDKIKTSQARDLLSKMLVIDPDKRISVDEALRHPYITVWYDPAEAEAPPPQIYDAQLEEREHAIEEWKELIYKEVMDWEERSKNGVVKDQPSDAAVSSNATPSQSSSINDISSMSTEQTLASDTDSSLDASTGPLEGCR
# T13 sequence (P45983 whole entry): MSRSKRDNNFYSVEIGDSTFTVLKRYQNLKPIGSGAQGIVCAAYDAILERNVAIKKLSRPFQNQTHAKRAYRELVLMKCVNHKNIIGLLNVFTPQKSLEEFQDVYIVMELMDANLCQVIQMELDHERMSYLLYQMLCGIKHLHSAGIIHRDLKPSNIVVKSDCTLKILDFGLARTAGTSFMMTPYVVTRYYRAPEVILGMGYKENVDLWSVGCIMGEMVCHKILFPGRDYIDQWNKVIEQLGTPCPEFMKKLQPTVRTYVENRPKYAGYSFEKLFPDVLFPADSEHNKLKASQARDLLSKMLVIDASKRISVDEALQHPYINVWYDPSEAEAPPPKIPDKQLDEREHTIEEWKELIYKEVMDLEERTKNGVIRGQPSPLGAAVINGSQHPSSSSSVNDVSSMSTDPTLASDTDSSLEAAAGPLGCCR
# T11 sequence (Q16539 whole entry): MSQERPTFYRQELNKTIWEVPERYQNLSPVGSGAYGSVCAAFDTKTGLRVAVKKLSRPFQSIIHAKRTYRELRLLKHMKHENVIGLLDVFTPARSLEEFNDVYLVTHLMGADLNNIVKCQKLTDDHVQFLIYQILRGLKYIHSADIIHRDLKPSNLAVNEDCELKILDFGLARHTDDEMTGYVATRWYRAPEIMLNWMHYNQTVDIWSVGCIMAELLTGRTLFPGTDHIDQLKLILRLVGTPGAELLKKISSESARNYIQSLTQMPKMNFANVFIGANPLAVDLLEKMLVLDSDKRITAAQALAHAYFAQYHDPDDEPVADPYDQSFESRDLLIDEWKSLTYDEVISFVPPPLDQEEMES
# T2 sequence (P15056 whole entry V600E): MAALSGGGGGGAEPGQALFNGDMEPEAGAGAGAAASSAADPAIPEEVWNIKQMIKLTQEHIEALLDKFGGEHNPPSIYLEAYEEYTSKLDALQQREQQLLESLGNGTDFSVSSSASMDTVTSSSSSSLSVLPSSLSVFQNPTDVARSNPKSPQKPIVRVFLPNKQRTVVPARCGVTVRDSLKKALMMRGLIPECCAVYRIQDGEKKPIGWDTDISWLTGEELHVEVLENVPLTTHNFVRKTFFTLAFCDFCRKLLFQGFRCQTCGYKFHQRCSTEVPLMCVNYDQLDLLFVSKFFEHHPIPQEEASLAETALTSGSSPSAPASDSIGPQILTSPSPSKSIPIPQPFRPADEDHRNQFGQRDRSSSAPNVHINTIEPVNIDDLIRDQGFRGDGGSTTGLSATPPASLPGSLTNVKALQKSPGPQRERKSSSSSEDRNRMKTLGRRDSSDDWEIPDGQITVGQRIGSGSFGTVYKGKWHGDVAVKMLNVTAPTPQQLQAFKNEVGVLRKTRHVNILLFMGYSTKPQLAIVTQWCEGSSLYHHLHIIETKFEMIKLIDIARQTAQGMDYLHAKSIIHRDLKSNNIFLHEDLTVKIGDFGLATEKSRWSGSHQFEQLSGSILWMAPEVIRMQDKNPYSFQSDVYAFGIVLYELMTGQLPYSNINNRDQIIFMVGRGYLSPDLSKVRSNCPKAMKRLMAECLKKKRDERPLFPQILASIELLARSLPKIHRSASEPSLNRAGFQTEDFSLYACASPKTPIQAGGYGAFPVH
# T8 sequence (P36507 whole entry): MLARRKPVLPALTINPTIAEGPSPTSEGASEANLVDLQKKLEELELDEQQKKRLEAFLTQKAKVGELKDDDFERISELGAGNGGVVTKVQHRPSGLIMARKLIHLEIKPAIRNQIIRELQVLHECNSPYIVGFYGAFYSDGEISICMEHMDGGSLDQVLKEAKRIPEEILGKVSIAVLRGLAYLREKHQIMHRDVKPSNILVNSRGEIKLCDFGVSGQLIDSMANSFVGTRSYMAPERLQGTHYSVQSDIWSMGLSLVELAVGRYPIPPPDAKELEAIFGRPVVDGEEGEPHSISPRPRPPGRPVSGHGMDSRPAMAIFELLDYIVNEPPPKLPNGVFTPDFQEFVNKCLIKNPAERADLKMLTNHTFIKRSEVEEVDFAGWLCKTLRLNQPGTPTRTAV
# T15 sequence (P07333 20-972): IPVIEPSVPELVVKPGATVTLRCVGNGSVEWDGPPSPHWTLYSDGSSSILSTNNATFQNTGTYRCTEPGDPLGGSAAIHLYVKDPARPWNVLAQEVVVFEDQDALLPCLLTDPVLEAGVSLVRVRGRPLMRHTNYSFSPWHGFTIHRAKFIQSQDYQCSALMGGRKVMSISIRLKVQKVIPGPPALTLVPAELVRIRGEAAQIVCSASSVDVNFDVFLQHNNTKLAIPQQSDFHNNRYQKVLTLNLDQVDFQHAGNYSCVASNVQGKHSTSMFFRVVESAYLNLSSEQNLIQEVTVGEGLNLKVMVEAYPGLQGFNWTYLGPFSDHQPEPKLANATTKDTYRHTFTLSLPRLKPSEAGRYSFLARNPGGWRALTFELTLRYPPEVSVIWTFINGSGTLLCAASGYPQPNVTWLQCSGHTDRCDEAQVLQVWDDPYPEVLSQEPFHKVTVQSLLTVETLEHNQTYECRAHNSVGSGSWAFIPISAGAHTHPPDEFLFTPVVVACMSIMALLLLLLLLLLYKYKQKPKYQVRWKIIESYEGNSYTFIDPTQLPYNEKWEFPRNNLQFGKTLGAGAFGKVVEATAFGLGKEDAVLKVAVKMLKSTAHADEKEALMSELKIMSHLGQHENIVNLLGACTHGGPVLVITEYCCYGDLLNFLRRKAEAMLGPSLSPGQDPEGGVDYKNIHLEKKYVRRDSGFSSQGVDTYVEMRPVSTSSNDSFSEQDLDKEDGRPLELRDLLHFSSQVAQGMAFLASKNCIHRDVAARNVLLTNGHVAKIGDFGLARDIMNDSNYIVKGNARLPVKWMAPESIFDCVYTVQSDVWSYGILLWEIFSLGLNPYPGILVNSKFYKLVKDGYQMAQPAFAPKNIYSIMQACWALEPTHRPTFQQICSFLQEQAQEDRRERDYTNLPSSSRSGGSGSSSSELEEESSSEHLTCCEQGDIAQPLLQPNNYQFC
# T14 sequence (P49841 whole entry): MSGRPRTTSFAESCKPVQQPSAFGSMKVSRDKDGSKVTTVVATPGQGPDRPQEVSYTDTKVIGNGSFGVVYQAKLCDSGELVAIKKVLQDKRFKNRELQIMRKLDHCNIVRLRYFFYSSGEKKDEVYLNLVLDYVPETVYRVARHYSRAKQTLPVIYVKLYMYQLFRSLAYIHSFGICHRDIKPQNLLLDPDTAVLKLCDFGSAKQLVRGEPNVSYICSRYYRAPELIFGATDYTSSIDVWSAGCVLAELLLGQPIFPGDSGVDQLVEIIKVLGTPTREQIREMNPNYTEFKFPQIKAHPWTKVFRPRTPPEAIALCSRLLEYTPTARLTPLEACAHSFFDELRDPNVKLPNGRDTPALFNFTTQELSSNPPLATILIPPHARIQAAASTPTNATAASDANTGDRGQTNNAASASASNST
# T6 sequence (P53779 whole entry): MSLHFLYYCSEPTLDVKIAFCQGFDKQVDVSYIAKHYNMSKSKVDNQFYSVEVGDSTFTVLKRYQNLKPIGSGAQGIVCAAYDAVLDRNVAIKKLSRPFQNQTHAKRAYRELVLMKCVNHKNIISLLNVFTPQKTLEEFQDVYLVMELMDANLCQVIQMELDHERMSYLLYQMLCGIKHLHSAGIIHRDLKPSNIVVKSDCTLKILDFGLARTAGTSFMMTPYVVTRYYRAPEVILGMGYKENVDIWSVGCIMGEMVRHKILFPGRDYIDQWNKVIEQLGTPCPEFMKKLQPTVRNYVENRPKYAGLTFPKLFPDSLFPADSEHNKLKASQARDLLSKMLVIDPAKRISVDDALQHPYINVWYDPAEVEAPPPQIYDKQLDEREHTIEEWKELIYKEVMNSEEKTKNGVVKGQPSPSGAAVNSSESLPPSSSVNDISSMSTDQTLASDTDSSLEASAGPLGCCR
# T4 sequence (P04049 whole entry): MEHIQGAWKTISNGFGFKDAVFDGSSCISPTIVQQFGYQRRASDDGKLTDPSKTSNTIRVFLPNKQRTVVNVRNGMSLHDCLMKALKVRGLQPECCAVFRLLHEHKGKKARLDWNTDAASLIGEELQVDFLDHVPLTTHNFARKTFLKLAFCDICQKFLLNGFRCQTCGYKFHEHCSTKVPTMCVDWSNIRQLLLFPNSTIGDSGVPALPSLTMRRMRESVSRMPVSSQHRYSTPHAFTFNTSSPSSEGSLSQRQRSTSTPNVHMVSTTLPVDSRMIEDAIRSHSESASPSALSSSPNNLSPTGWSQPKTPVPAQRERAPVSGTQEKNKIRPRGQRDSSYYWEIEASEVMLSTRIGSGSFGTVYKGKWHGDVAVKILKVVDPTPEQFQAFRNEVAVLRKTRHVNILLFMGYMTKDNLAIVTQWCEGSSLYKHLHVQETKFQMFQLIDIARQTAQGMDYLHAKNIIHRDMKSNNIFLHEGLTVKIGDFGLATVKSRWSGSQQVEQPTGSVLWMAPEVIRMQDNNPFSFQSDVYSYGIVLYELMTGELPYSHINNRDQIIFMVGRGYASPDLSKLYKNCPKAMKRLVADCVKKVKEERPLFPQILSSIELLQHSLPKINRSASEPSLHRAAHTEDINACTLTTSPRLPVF
structure (smiles),measurement,setting,value
"O=S(=O)(NCCCNc1cc(-c2cn(-c3ccccc3)nc2-c2cccc(O)c2)ccn1)c1ccc(Cl)cc1 [Compound 2l, 4-Chloro-N-(3-((4-(3-(3-hydroxyphenyl)-1-phenyl-1H-pyrazol-4-yl)pyridin-2-yl)amino)propyl) benzenesulfonamide]",Inhibition %,[1],0.56 ± 1.08%
same,IC50,[2]; BRAF(V600E),1160 ± 40 nM
same,Inhibition %,"[2]; single dose of 10 µM, BRAF (V599E) in Table 6, BRAF (V600E) in text",93.67 ± 0.47%
same,Inhibition %,[3],11.74 ± 4.78%
same,IC50,[4],3520 ± 10 nM
same,Inhibition %,[5],−2.94 ± 0.17%
same,Inhibition %,[6],89.50 ± 0.03%
same,Inhibition %,[7],–10.98 ± 0.40%
same,Inhibition %,[8],11.73 ± 1.60%
same,Inhibition %,[9],10.05 ± 0.10%
same,IC50,[10],360 ± 70 nM
same,Inhibition %,"[10]; single dose of 10 µM, 10 µM",98.47% and 98.49 ± 0.02%
same,IC50,[11]; MAPK14,1130 ± 90 nM
same,Inhibition %,"[11]; single dose of 10 µM, P38a/MAPK14",86.54 ± 0.61%
same,Inhibition %,[12],13.07 ± 0.93%
same,IC50,[13],350 ± 40 nM
same,Inhibition %,"[13]; single dose of 10 µM, 10 µM",99.02% and 99.05 ± 0.03%
same,Inhibition %,[14],75.45 ± 0.28%
same,Inhibition %,[15],24.24 ± 1.14%
same,Inhibition %,[16],22.92 ± 1.14%
same,AUCinf,[17]; IV,1478.2 ng·h/mL
same,AUClast,[17]; IV,1471.6 ng·h/mL
same,CL,[17]; IV,113 mL/min/kg
same,t1/2,[17]; IV,5.8 h
same,AUCinf,[17]; PO,142.1 ng·h/mL
same,AUClast,[17]; PO,136.0 ng·h/mL
same,Cmax,[17]; PO,36.6 ng/mL
same,F (oral bioavailability),[17]; PO,9.2%
same,Tmax,[17]; PO,0.5 h
same,t1/2,[17]; PO,6.1 h

# Reference: publication PMC6211260 (Journal of Enzyme Inhibition and Medicinal Chemistry, 2018)
